Columns and labels:
Experiment in all cases: relative viability (nuclei count vs DMSO), 5 days (fraction); higher = more cells survive
Zosuquidar + Bortezomib = compound: O[C@@H](COc1cccc2ncccc12)CN1CCN([C@@H]2c3ccccc3[C@@H]3[C@H](c4ccccc42)C3(F)F)CC1 [Zosuquidar] + CC(C)C[C@H](NC(=O)[C@H](Cc1ccccc1)NC(=O)c1cnccn1)B(O)O [Bortezomib] (partner 0.002 µM)
Method in brief: (§1)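 Lung cancer cell lines in 1536-well plates were dosed by pin tool the day after seeding, either with one drug alone or with a fixed anchor-drug dose plus five library-drug doses (not always all listed) in √10 steps. After 5 days, cells were fixed and their nuclei stained in one step (final 0.05% Triton X-100, 1% formaldehyde, 1 ug/ml Hoechst), then counted on 4× images. Relative viability is the nuclei count in treated wells divided by that in vehicle wells. Values are medians of duplicate plates.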

Zosuquidar + Lapatinib = compound: O[C@@H](COc1cccc2ncccc12)CN1CCN([C@@H]2c3ccccc3[C@@H]3[C@H](c4ccccc42)C3(F)F)CC1 [Zosuquidar] + CS(=O)(=O)CCNCc1ccc(-c2ccc3ncnc(Nc4ccc(OCc5cccc(F)c5)c(Cl)c4)c3c2)o1 [Lapatinib] (partner 2 µM)
Method in brief: as §1

Zosuquidar + Tozasertib = compound: O[C@@H](COc1cccc2ncccc12)CN1CCN([C@@H]2c3ccccc3[C@@H]3[C@H](c4ccccc42)C3(F)F)CC1 [Zosuquidar] + Cc1cc(Nc2cc(N3CCN(C)CC3)nc(Sc3ccc(NC(=O)C4CC4)cc3)n2)n[nH]1 [Tozasertib] (partner 0.1 µM)
Method in brief: as §1

[1] = compound: COc1cc2nccc(Oc3ccc(NC(=O)C4(C(=O)Nc5ccc(F)cc5)CC4)cc3)c2cc1OC [Cabozantinib] + Nc1nc2[nH]cc(CCc3ccc(C(=O)N[C@@H](CCC(=O)O)C(=O)O)cc3)c2c(=O)[nH]1 [Pemetrexed] (partner 0.2 µM)
Method in brief: as §1

Cell Line | relative viability (Zosuquidar + Bortezomib; first compound 0.01 µM) | relative viability (Zosuquidar + Bortezomib; first compound 0.03162 µM) | relative viability (Zosuquidar + Bortezomib; first compound 0.1 µM) | relative viability (Zosuquidar + Bortezomib; first compound 0.3162 µM) | relative viability (Zosuquidar + Bortezomib; first compound 1 µM) | relative viability (Zosuquidar + Lapatinib; first compound 0.01 µM) | relative viability (Zosuquidar + Lapatinib; first compound 0.03162 µM) | relative viability (Zosuquidar + Lapatinib; first compound 0.1 µM) | relative viability (Zosuquidar + Lapatinib; first compound 0.3162 µM) | relative viability (Zosuquidar + Lapatinib; first compound 1 µM) | relative viability (Zosuquidar + Tozasertib; first compound 0.01 µM) | relative viability (Zosuquidar + Tozasertib; first compound 0.03162 µM) | relative viability (Zosuquidar + Tozasertib; first compound 0.1 µM) | relative viability (Zosuquidar + Tozasertib; first compound 0.3162 µM) | relative viability (Zosuquidar + Tozasertib; first compound 1 µM) | relative viability ([1]; first compound 0.02 µM) | relative viability ([1]; first compound 0.06325 µM) | relative viability ([1]; first compound 0.2 µM) | relative viability ([1]; first compound 0.6325 µM) | relative viability ([1]; first compound 2 µM)
ABC-1 | 0.361 | 0.328 | 0.322 | 0.379 | 0.269 | 1.17 | 1.14 | 1.24 | 1.19 | 1.05 | 0.143 | 0.172 | 0.194 | 0.234 | 0.178 |  |  |  |  | 
IA-LM | 0.925 | 0.797 | 0.975 | 1.03 | 0.84 |  | 0.713 | 0.802 | 1.01 | 0.881 |  |  |  |  |  |  |  |  |  | 
NCI-H520 | 0.54 | 0.591 | 0.565 | 0.743 | 0.729 | 0.878 | 0.827 | 0.569 | 0.855 | 0.982 | 0.413 | 0.441 |  | 0.392 | 0.416 | 0.625 | 0.747 | 0.667 | 0.63 | 0.552
NCI-H1915 | 1 | 0.995 | 1 | 1.01 | 1 | 0.988 | 0.996 | 0.953 | 1.05 | 1.01 | 0.406 | 0.453 | 0.447 | 0.461 | 0.405 | 0.532 | 0.51 | 0.507 | 0.505 | 0.459
NCI-H1299 | 1.01 | 1.01 | 0.997 | 0.962 | 1.03 | 0.971 | 0.981 | 0.944 | 1.01 | 0.958 |  |  |  |  |  |  |  |  |  | 
HCC-827 | 0.931 | 0.961 | 1.05 | 1.05 | 0.844 | 0.183 | 0.246 | 0.178 | 0.19 | 0.246 | 0.413 | 0.369 | 0.401 | 0.386 | 0.386 | 0.266 | 0.251 |  | 0.214 | 0.274
NCI-H1792 | 0.836 | 0.495 | 0.906 | 0.907 | 0.96 | 0.9 | 0.893 | 0.837 | 0.839 | 0.795 |  |  |  |  |  |  | 1.27 | 0.868 | 0.986 | 0.608
SW 900 |  |  |  |  |  |  |  |  |  |  | 0.581 | 0.583 | 0.573 | 0.665 | 0.473 | 0.47 | 0.482 | 0.486 | 0.448 | 0.448
NCI-H1563 | 0.842 | 0.882 | 0.807 | 1.04 | 0.858 | 0.99 | 0.81 | 0.813 | 1.04 | 0.855 |  |  |  |  |  | 0.645 | 0.869 | 0.984 | 0.684 | 0.802
NCI-H1944 |  |  |  |  |  | 0.822 | 0.797 | 0.585 | 0.925 | 0.794 | 0.244 | 0.24 | 0.254 | 0.243 | 0.248 | 0.601 | 0.645 | 0.631 | 0.637 | 0.696
NCI-H358 |  |  |  |  |  | 0.475 | 0.415 | 0.366 | 0.55 | 0.492 | 0.109 | 0.12 | 0.093 | 0.1 | 0.0956 | 0.181 | 0.171 | 0.16 | 0.18 | 0.166
NCI-H1395 |  |  |  |  |  | 1.03 | 0.903 | 0.957 | 1.54 | 1.04 | 0.729 | 0.893 | 0.804 | 0.81 | 0.755 | 0.699 | 1.03 | 0.924 | 0.714 | 0.824
Calu-6 | 0.955 | 1.05 | 1.13 | 1.05 | 1.15 | 1.04 | 1.09 | 1.2 | 1.06 | 1.06 |  |  |  |  |  |  |  |  |  | 
NCI-H1793 |  |  |  |  |  | 0.916 | 0.625 |  | 0.835 | 1.11 | 0.345 | 0.534 |  | 0.393 | 0.376 | 0.865 | 0.917 |  | 0.73 | 0.588
NCI-H727 | 0.876 | 0.938 | 0.708 | 0.787 | 0.828 | 0.846 | 0.795 | 0.748 | 1.02 | 0.94 | 0.675 | 0.484 | 0.45 | 0.439 | 0.401 |  |  |  |  | 
EBC-1 | 0.649 | 0.553 | 0.652 | 0.591 | 0.547 | 0.215 | 0.234 | 0.206 | 0.198 | 0.226 |  |  |  |  |  |  |  |  |  | 
NCI-H2342 |  |  |  |  |  |  |  |  |  |  | 0.499 | 0.468 | 0.55 | 0.608 | 0.597 | 0.711 | 0.828 | 0.83 | 0.86 | 0.729
NCI-H1703 | 0.441 | 0.329 | 0.371 | 0.397 | 0.567 | 1.17 | 1.27 | 0.96 | 1.45 | 1.16 |  |  |  |  |  |  |  |  |  | 
ChaGo-K-1 | 0.854 | 0.966 | 1.08 | 0.967 | 0.787 |  |  |  |  |  | 0.227 | 0.217 | 0.261 | 0.204 | 0.227 | 0.261 | 0.261 | 0.255 | 0.26 | 0.263
NCI-H441 | 0.43 | 0.476 | 0.444 |  | 0.641 |  |  |  |  |  | 0.475 | 0.723 | 0.819 | 0.709 | 0.609 | 0.243 | 0.237 | 0.288 | 0.229 | 0.235
NCI-H1648 |  |  |  |  |  |  |  |  |  |  | 0.602 |  | 0.316 | 0.497 | 0.562 | 0.73 | 0.908 |  | 0.793 | 0.82
NCI-H522 |  |  |  |  |  |  |  |  |  |  | 0.536 | 0.537 | 0.585 | 0.601 | 0.556 | 1.16 | 0.972 | 0.943 | 1.25 | 0.934
A549 |  |  |  |  |  | 0.958 | 0.935 | 0.984 | 0.977 | 0.94 |  |  |  |  |  |  |  |  |  | 
LCLC-103H | 1.02 | 1.03 | 0.836 | 1.23 | 0.926 |  |  |  |  |  | 0.388 | 0.462 | 0.445 | 0.462 | 0.496 | 0.45 | 0.451 | 0.459 | 0.527 | 0.465
